Reference: publication PMC10648349, “Aromatic Diboronic Acids as Effective KPC/AmpC Inhibitors” (Molecules, 2023)
In brackets after ≈: the same amount, converted by molar mass.

Columns and labels:
E. faecalis ATCC 29212 = assay: direct antimicrobial activity (disc-diffusion, MIC, MBC); format: cell-based; settings: Enterococcus faecalis, ATCC29212
How it was run: (§1)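 First, discs bearing 0.4 mg of compound in DMSO were tested for growth inhibition. Next, MIC was determined, followed by MBC for bacteria or MFC for yeasts, all per EUCAST and CLSI.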

E. faecium ATCC 6057 = assay: as above; format: cell-based; settings: Enterococcus faecium, ATCC6057
How it was run: as §1

[1] = test system: S. aureus ATCC 43300 MRSA; assay: as above; format: cell-based; settings: Staphylococcus aureus; for zone of inhibition at 0.4 mg/disc: 0.4 mg per disc, 9 mm disc (linezolid 0.03 mg, 6 mm disc), - no zone, read-out: Diameter of inhibition zone
How it was run: as §1

S. aureus ATCC 6538P = assay: as above; format: cell-based; settings: Staphylococcus aureus, ATCC6538P; for zone of inhibition at 0.4 mg/disc: 0.4 mg per disc, 9 mm disc (linezolid 0.03 mg, 6 mm disc), - no zone, read-out: Diameter of inhibition zone
How it was run: as §1

[2] = test system: S. epidermidis ATCC 12228; assay: as above; format: cell-based; settings: Staphylococcus epidermidis, ATCC12228; for zone of inhibition at 0.4 mg/disc: 0.4 mg per disc, 9 mm disc (linezolid 0.03 mg, 6 mm disc), - no zone, read-out: Diameter of inhibition zone
How it was run: as §1

B. subtilis ATCC 6633 = assay: direct antimicrobial activity (disc-diffusion); format: cell-based; settings: Bacillus subtilis, ATCC6633; 0.4 mg per disc, 9 mm disc (linezolid 0.03 mg, 6 mm disc); - no zone; read-out: Diameter of inhibition zone
How it was run: as §1

[3] = test system: C. parapsilosis ATCC 22019; assay: antifungal activity (disc-diffusion, MIC, MFC); format: cell-based, Candida parapsilosis; settings: Lodderomyces parapsilosis, ATCC22019; for MIC: fluconazole by Etest
How it was run: as §1

[4] = test system: C. guilliermondii IBA 155; assay: antifungal activity (disc-diffusion, MIC, MFC); format: cell-based, Candida guilliermondii; settings: Meyerozyma guilliermondii, IBA155; for MIC: fluconazole by Etest
How it was run: as §1

C. albicans ATCC 90028 = assay: antifungal activity (disc-diffusion, MIC, MFC); format: cell-based; settings: Candida albicans, ATCC90028; fluconazole by Etest
How it was run: as §1

C. tropicalis ATCC 750 = assay: antifungal activity (disc-diffusion, MIC, MFC); format: cell-based; settings: Candida tropicalis, ATCC750; fluconazole by Etest
How it was run: as §1

C. tropicalis IBA 171 = assay: antifungal activity (disc-diffusion, MIC, MFC); format: cell-based; settings: Candida tropicalis, IBA171; fluconazole by Etest
How it was run: as §1

S. cerevisiae ATCC 9763 = assay: antifungal activity (disc-diffusion, MIC, MFC); format: cell-based; settings: Saccharomyces cerevisiae, ATCC9763; for MIC: fluconazole by Etest
How it was run: as §1

[5] = test system: K. pneumoniae ATCC BAA 1705 KPC-2-positive; assay: combination disc test CDT-KPC; format: cell-based; settings: Klebsiella pneumoniae, BAA1705, read-out: Diameter of inhibition zone, MEM-10 disc with agent; for zone of inhibition at 300 µg/disc: agent 0.3 mg per disc
[6] = test system: P. aeruginosa MUW 700 cAmpC-positive; assay: combination disc test CDT-AmpC; format: cell-based; settings: Pseudomonas aeruginosa, read-out: Diameter of inhibition zone, CAZ-30 disc with agent; for zone of inhibition at 100 µg/disc: agent 0.1 mg per disc
[7] = test system: E. coli 77 CMY-2-positive; assay: combination disc test CDT-AmpC; format: cell-based; settings: Escherichia coli, read-out: Diameter of inhibition zone, CAZ-30 disc with agent; for zone of inhibition at 100 µg/disc: agent 0.1 mg per disc
[8] = test system: K. pneumoniae ATCC 700603 ESBL-positive; assay: combination disc test CDT-ESBL; format: cell-based; settings: Klebsiella pneumoniae, ATCC700603, read-out: Diameter of inhibition zone, CAZ-30 disc with agent; for zone of inhibition at 300 µg/disc: agent 0.3 mg per disc
[9] = test system: E. coli 77 CMY-2-positive; assay: checkerboard microdilution, antibiotic plus tested agent; format: cell-based, Escherichia coli
How it was run: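 β-lactam 1–64 mg/L × agent/PBA 4–16 mg/L checkerboard; meropenem vs carbapenemase producers, ceftazidime vs AmpC producer; imipenem, ertapenem added for selected agents. Readout: combination MICs, FICI (average and lowest); off-scale MICs taken as next doubling.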

[10] = MTT-based viability assay; format: cell-based; settings: human, MRC-5 human fibroblasts, 72 h, read-out: Viability of MRC-5 cells (% of viable cells ± SD)
How it was run: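 MRC-5 human fibroblasts grown in MEME with 10% FBS at 37 °C, 5% CO2, tested by MTT with absorbance read at 570 nm. Viability given as percent of untreated control cells, in triplicate.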

[11] = 0.4 mg per disc, 9 mm disc (fluconazole 0.025 mg, 6 mm disc), - no zone, read-out: Diameter of inhibition zone

| Structure (SMILES) | MIC (E. faecalis ATCC 29212) [µg/mL] | MIC (E. faecium ATCC 6057) [µg/mL] | MIC [1] [µg/mL] | zone of inhibition at 0.4 mg/disc [1] [mm] | MIC (S. aureus ATCC 6538P) [µg/mL] | zone of inhibition at 0.4 mg/disc (S. aureus ATCC 6538P) [mm] | MIC [2] [µg/mL] | zone of inhibition at 0.4 mg/disc [2] [mm] | zone of inhibition at 0.4 mg/disc (B. subtilis ATCC 6633) [mm] | MIC [3] [µg/mL] | MIC [4] [µg/mL] | MIC (C. albicans ATCC 90028) [µg/mL] | MIC (C. tropicalis ATCC 750) [µg/mL] | MIC (C. tropicalis IBA 171) [µg/mL] | MIC (S. cerevisiae ATCC 9763) [µg/mL] | Average FICI with ceftazidime [9] | The lowest FICI with ceftazidime [9] | viability at 72 h, 12.5 mg/L [10] [%] | viability at 72 h, 25 mg/L [10] [%] | viability at 72 h, 50 mg/L [10] [%] | other results |
| --- | --- | --- | --- | --- | --- | --- | --- | --- | --- | --- | --- | --- | --- | --- | --- | --- | --- | --- | --- | --- | --- |
| OB(O)c1ccc(B(O)O)c(F)c1 [1b] | 200 (≈ 1090 µM) | 200 (≈ 1090 µM) | 100 (≈ 544 µM) | 13 | 25 (≈ 136 µM) | 14 | 100 (≈ 544 µM) | 17 | 23 | 100 (≈ 544 µM) | 400 (≈ 2180 µM) | > 400 | > 400 | 400 (≈ 2180 µM) | 25 (≈ 136 µM) | 0.17 | 0.10 | 140 ± 6.7 | 140 ± 8.3 | 117 ± 1.3 | zone of inhibition at 0.4 mg/disc [3, 11]: 12 mm; zone of inhibition at 0.4 mg/disc [4, 11]: 24 mm; zone of inhibition at 0.4 mg/disc (S. cerevisiae ATCC 9763; [11]): 14 mm; zone of inhibition at 100 µg/disc ([5]; agent 0.1 mg per disc): 11 mm; zone of inhibition at 100 µg/disc [6]: 20 mm; zone of inhibition at 100 µg/disc [7]: 20 mm; zone of inhibition at 100 µg/disc ([8]; agent 0.1 mg per disc): 15 mm |
| OB(O)c1cc(F)cc(B(O)O)c1 [2b] | 400 (≈ 2180 µM) | 400 (≈ 2180 µM) | 400 (≈ 2180 µM) | 15 | 100 (≈ 544 µM) | 14 | 50 (≈ 272 µM) | 19 | 17 | > 400 | > 400 | > 400 | > 400 | > 400 | > 400 | 0.17 | 0.10 | 108 ± 1.1 | 87.9 ± 1.7 | 73.8 ± 1.9 | zone of inhibition at 0.4 mg/disc (E. faecium ATCC 6057; 0.4 mg per disc, 9 mm disc (linezolid 0.03 mg, 6 mm disc), - no zone, read-out: Diameter of inhibition zone): 14 mm; zone of inhibition at 300 µg/disc [5]: 19 mm; zone of inhibition at 100 µg/disc [6]: 18 mm; zone of inhibition at 100 µg/disc [7]: 21 mm; zone of inhibition at 300 µg/disc [8]: 16 mm |
| OB(O)c1ccc(B(O)O)c(B(O)O)c1 [4b, benzene-1,2,4-triboronic] | 200 (≈ 954 µM) | 200 (≈ 954 µM) | 200 (≈ 954 µM) | – | 25 (≈ 119 µM) | 20 | 200 (≈ 954 µM) | 20 | 18 | > 400 | > 400 | > 400 | > 400 | > 400 | > 400 | 0.43 | 0.27 | 114 ± 1.8 | 106.4 ± 0.1 | 97.3 ± 13.6 | zone of inhibition at 300 µg/disc [5]: 14 mm; zone of inhibition at 300 µg/disc ([6]; agent 0.3 mg per disc): 21 mm; zone of inhibition at 300 µg/disc ([7]; agent 0.3 mg per disc): 21 mm; zone of inhibition at 300 µg/disc [8]: 14 mm |
